Reference: patent publication US20180177749A1, “USE OF CYP EXPRESSION TO DIRECT THERAPEUTIC INTERVENTION IN CANCER” (REGENTS OF THE UNIVERSITY OF MINNESOTA, priority 2016, published 2018)
Read-outs that look alike come from different tables or passages of the source.

Tests used:
CYP3A4 = molecular target: T1, CYP3A4 (Homo sapiens, UniProt P08684); test: Recombinant microsomal CYP-mediated EET biosynthesis (CYP3A4 Supersomes); format: biochemical; settings: for IC50: microsomal CYP3A4
T1 construct: host or cells: insect cells (microsomes)
T1 sequence (P08684 whole entry): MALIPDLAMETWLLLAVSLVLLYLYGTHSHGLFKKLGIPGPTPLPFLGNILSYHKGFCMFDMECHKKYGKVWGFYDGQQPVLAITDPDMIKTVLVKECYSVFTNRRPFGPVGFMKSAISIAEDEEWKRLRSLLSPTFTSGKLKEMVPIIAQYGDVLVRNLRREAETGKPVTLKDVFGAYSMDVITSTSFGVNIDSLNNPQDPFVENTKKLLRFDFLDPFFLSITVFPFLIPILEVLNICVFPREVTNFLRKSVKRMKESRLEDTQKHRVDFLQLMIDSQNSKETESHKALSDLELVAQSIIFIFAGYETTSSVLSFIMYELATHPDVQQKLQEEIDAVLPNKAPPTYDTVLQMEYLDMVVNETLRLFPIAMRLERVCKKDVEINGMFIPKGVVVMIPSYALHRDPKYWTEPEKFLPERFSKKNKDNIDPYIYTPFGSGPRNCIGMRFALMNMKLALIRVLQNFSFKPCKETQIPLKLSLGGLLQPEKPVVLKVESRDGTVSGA
Source text: (§1) Samples were submitted to liquid chromatography-electrospray ionization/multiple reaction monitoring/mass spectrometry (LC-ESI/MRM/MS) analysis in a Thermo Electron Quantum Discovery Max triple quadrupole mass spectrometer (Thermo Finnigan, San Jose, Calif.) coupled with an Agilent 1100 HPLC (Santa Clara, Calif.), using argon as the collision gas. […] A standard curve was obtained by linear regression of the peak area ratio of authentic EET regioisomers against internal standards. The amount of EETs in samples was calculated according to the standard curve. The (±)-5,6-EET regioisomer was not measured because it undergoes rapid internal degradation.
(§2) CYP3A4 or 2C8 Supersomes™ (BD Biosciences) were incubated at 37° C. for 30 min in the presence of AA (5 μM) in […] Tris-HCl, pH 7.4, containing 1 mm EDTA and 1 mm NADPH. Reactions were terminated by adding methylene chloride (0.5 ml). Samples were centrifuged at 3,000 rpm for 10 min and 150 μl of the organic phases were evaporated under nitrogen. Samples were reconstituted in 20 μl of MeOH containing [^13C20]EET internal standards and submitted to a Thermo Electron Quantum Discovery Max triple quadrupole mass spectrometer (Thermo Finnigan, San Jose, Calif.) coupled with an Agilent 1100 HPLC (Santa Clara, Calif.) for analysis. […] Concentrations of EETs generated by CYP Supersomes™ were calculated by linear regression against standard curve generated with EET standards.

CYP3A4 vs CYP2C8 = molecular target: T2, CYP3A4 vs CYP2C8 (Homo sapiens, UniProt P08684); test: as above; format: biochemical; settings: human, CYP3A4 or CYP2C8 Supersomes (recombinant microsomes), pH 7.4, probe arachidonic acid (AA), 5 μM; CYP3A4 vs CYP2C8; read-out: selectivity for CYP3A4 epoxygenase activity
T2 construct: host or cells: insect cells (microsomes)
T2 sequence (P08684 whole entry): as above
Source text: as §1, §2

CYP4A11 = molecular target: T3, CYP4A11 (Homo sapiens, UniProt Q02928); test: CYP4A11-mediated EET biosynthesis; format: biochemical; settings: 25 to 100 uM
T3 sequence (Q02928 5-519): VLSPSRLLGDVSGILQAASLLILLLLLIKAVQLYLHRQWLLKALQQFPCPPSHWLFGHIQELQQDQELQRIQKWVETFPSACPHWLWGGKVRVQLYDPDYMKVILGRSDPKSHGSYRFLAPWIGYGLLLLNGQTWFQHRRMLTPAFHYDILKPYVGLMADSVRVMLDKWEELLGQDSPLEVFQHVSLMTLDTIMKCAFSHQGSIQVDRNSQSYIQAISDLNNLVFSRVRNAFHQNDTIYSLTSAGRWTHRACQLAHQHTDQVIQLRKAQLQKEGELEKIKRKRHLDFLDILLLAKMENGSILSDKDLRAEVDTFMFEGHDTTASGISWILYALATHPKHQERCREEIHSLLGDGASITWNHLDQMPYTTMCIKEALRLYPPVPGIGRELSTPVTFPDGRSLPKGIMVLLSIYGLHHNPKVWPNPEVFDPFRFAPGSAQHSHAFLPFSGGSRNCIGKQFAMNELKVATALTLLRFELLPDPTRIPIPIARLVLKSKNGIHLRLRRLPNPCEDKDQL

MCF-7 = test: MTT cell proliferation assay, MCF-7; format: cell-based; settings: Homo sapiens, MCF7
Description: Cells were grown at 37° C. in a 5% CO2 incubator. […] MTT was then added (5 mg/ml), and after 2 h of incubation, the plates were centrifuged. The supernatant was removed; DMSO was added, and the absorbance was read at 540 nm with a BioTek 96-well plate reader.

T47D = test: MTT cell proliferation assay, T47D; format: cell-based, human
Description: (§3) The human breast cancer cell lines MCF-7, T47D, and MDA-MB-231 described above were grown in Minimal Essential Medium (MCF-7), RPMI 1640 with insulin (0.2 U/mL) and 1 mM Na pyruvate (T47D) or DMEM containing 10% fetal bovine serum (FBS) (MDA-MB-231), which was defined as complete medium (CM). Cells were grown at 37° C. in a 5% CO2 incubator. […] MTT was then added (5 mg/ml), and after 2 h of incubation, the plates were centrifuged. The supernatant was removed; DMSO was added, and the absorbance was read at 540 nm with a BioTek 96-well plate reader.

MDA-MB-231 = test: MTT cell proliferation assay, MDA-MB-231; format: cell-based, human
Description: as §3

MDA-MB-435/LCC6 = test: Cell growth inhibition, MDA-MB-435/LCC6; format: cell-based; settings: MDA-MB-435/LCC6, Triple negative
MCF-10A = test: Cell growth inhibition, MCF-10A non-transformed breast cell line; format: cell-based; settings: Homo sapiens, ER−[PR−]
MCF-7 cells = test: Measurement of OCR and ECAR (extracellular flux), MCF-7; format: cell-based, human
Description: (§4) Cells were maintained in growth medium consisting of 10% FBS at 37° C. with 5% CO2 and seeded at 100,000 cells per well in XF24-well cell culture microplates (Seahorse Bioscience, North Billirica, Mass.). Concentrated stocks of HBB were prepared in DMSO. HBB was diluted to 10× working concentration in XF assay medium (a non-buffered medium including 2 mM L-glutamine but no sodium bicarbonate (buffering agent), glucose, or sodium pyruvate). Assays were performed in the XF Extracellular Flux Analyzer (Seahorse Bioscience that measures uptake and excretion of metabolic end products in real time). Oxygen consumption rate (OCR) and extracellular acidification rate (ECAR) were measured using an XF Assay Kit. OCR is reported in pmoles/minute and ECAR in mpH/minute. Before analysis, the cells were switched from culture medium to XF assay medium. After baseline measurements, 75 μl of HBB prepared in assay medium was injected into each well to reach final working concentrations. After addition of HBB, OCR and ECAR were measured at 18-minute intervals. […] There were 6 replicates for the studies of the 3-18 and 4-14 cell lines.

MDA-MB-231 cells = test: Measurement of OCR and ECAR, MDA-MB-231; format: cell-based, human; settings: t-AUCB 2.5, 5 μM, HBB 20, 40 μM
Description: as §4

[1] = t-AUCB 2.5, 5 μM, metformin 2.5, 5 mM, HBB 20, 40 μM, rotenone 1 μM

CCCCCCNC(=N)NC(=N)NCc1ccccc1 [HBB, N1-hexyl-N5-benzyl-biguanide]
Ki (CYP3A4; CYP3A4 epoxygenase activity): 9 µM
IC50 (CYP3A4; read-out: IC50, CYP3A4 synthesis of (±)-8,9-EET): 9.5 µM
IC50 (CYP3A4; read-out: IC50, CYP3A4 synthesis of (±)-11,12-EET): 8 µM
selectivity ratio at 30 min (CYP3A4 vs CYP2C8): 5 to 7
inhibition of EET production by CYP4A11 (CYP4A11): only weakly
IC50 (MCF-7; MCF-7, ER+[PR+]HER2−, read-out: IC50): 20.1 µM
IC50 (MCF-7; read-out: IC50 MCF-7): 20 µM
growth inhibition abrogated by concurrent (±)-14,15-EET (T47D; (±)-14,15-EET 1 μM, 24 hours): abrogated most of the inhibition
IC50 (T47D; Homo sapiens, ER+[PR+]): 25.1 µM
IC50 (MDA-MB-231; Homo sapiens, MDA-MB-231, Triple negative): 20.5 µM
growth inhibition abrogated by concurrent (±)-14,15-EET (MDA-MB-231; MDA-MB-231, (±)-14,15-EET 1 μM, 24 hours): no dependence on (±)-14,15-EET
IC50 (MDA-MB-435/LCC6): 12.5 µM
IC50 (MCF-10A): 20.5 µM
potency as inhibitor of OCR relative to metformin (MCF-7 cells): more than 250 fold
extracellular acidification rate (ECAR) (MCF-7 cells; [1]): significant inhibition of ECAR without recovery
oxygen consumption rate (OCR) (MCF-7 cells; [1]): dose-dependent reduction of OCR
extracellular acidification rate (ECAR) (MDA-MB-231 cells): least inhibition of ECAR
oxygen consumption rate (OCR) (MDA-MB-231 cells): significant vs. vehicle
